Values of other authors in US12378579B2, “Method to produce the anti-microbial diterpenoid leubethanol and related serrulatane-type diterpenes” (priority 2020, dated 2025).

Test system: multi-drug-resistant tuberculosis
Details: pure compound from Leucophyllum frutescens; background statement

For `CC(C)=CCC[C@H](C)[C@@H]1CC[C@@H](C)c2c(O)cc(C)cc21` [leubethanol], the “activity against multi-drug resistant tuberculosis” value is given as “demonstrated activity”.
